Assay [1] has as its target T1, human recombinant Bcl-2 protein (Homo sapiens, UniProt P10415).
T1 construct: purchased Beijing Yigiao Shenzhou Biotechnology Co., Ltd. 10195-HOSE
Put plainly: Fluorescence polarization test for inhibition of BCL-2 binding to FITC-BIM. The settings on record: 5 nM BCL-2, 5 nM FITC-BIM, read-out: FP BCL-2 IC50. How it is done:
Fluorescence polarization assay was used to evaluate the effect of the compounds of the present invention on the biological activity of BCL-2.
The effects of the compounds on the biological activity of BCL-2 were evaluated by determining the effects of the compounds on the binding activity of BCL-2 to leukemia pro-apoptotic protein (BIM) using an affinity assay method based on the principle of fluorescence polarization. The reaction buffer comprises the following components: PBS (pH 7.4, 3 mM Na2HPO4, 155 mM NaCl, 1 mM KH2PO4), 1 mM DTT; human recombinant Bcl-2 protein (Item No. 10195-HOSE) (purchased from Beijing Yigiao Shenzhou Biotechnology Co., Ltd.) was diluted to 5 nM with the reaction buffer; FITC-labeled BIM polypeptide (purchased from Nanjing GenScript Biotechnology Co., Ltd.) was diluted to 5 nM with the reaction buffer.
The compounds were dissolved in 100% DMSO and diluted to 0.1, 1, 10 μM, followed by 4-fold serial dilutions with DMSO to a minimum concentration of 0.0061, 0.061, 0.61 nM, each concentration point was further diluted 50-fold with the reaction buffer.
3 μL of solution containing the compound and 12 μL of solution containing BCL-2 were added to the black 384-well assay plate, mixed well, and incubated at room temperature for 15 minutes. Subsequently, 15 μL of FITC-BIM solution was added, and the reaction mixture was incubated at room temperature for 30 minutes in dark place, and then the fluorescence polarization was detected immediately on an Envision multi-mode reader (Perkin Elmer), with 480 nm as the excitation wavelength and 535 nm as the emission wavelength. In this experiment, the group without BCL-2 protein was used as a negative control (100% inhibition), and the group with BCL-2 protein but without the compound was used as a positive control (0% inhibition). The inhibition percentage of the compound to the affinity of BCL-2 can be calculated using the following equation: […]
(§1) The IC50 of the compound was calculated from 8 concentration points using XLfit (ID Business Solutions Ltd., UK) software by the following equation:
(§2) Y=Bottom+(Top−Bottom)/(1+10^((log IC50−X)*slope factor))
(§3) where Y is the inhibition percentage, X is the logarithm of the concentration of the compound to be tested, Bottom is the maximum inhibition percentage, Top is the minimum inhibition percentage, and slope factor is the slope coefficient of the curve.
In general terms: Fluorescence polarisation rises when a labelled molecule tumbles more slowly, as on binding a larger partner.

Assay [2] addresses T2, human recombinant Bcl-XL protein (Homo sapiens, UniProt Q07817).
T2 construct: purchased Beijing Yiqiao Shenzhou Biotechnology Co., Ltd. 10455-H0SE
Put plainly: Fluorescence polarization test for inhibition of BCL-XL binding to FITC-BIM. Conditions: 10 nM BCL-XL, 10 nM FITC-BIM, read-out: FP BCL-XL IC50. On the procedure:
Fluorescence polarization assay was used to evaluate the effect of the compounds of the present invention on the biological activity of BCL-XL.
The effects of the compounds on the biological activity of BCL-XL were evaluated by detecting the effects of the compounds on the binding activity of BCL-XL to BIM using an affinity assay method based on the principle of fluorescence polarization. The reaction buffer contains the following components: PBS (pH 7.4, 3 mM Na2HPO4, 155 mM NaCl, 1 mM KH2PO4), 1 mM DTT; human recombinant Bcl-XL protein (Item No. 10455-H0SE) (purchased from Beijing Yiqiao Shenzhou Biotechnology Co., Ltd.) was diluted to 10 nM with reaction buffer; FITC-labeled BIM polypeptide (purchased from Nanjing GenScript Biotechnology Co., Ltd) was diluted to 10 nM with reaction buffer.
The compounds were dissolved in 100% DMSO and diluted to 1 μM, followed by 4-fold serial dilutions in DMSO to a minimum concentration of 0.061 nM, each concentration point was further diluted 50-fold with reaction buffer.
3 μL of solution containing the compound and 12 μL of solution containing BCL-XL were added to the black 384-well assay plate, mixed well, and incubated at room temperature for 15 minutes. Subsequently, 15 μL of FITC-BIM solution was added, and the reaction mixture was incubated at room temperature for 30 minutes in the dark place, and then the fluorescence polarization was detected immediately on an Envision multi-plate reader (Perkin Elmer), with 480 nm as the excitation wavelength and 535 nm as the emission wavelength. In this experiment, the group without BCL-XL protein was used as a negative control (100% inhibition), and the group with BCL-XL protein but without the compound was added as a positive control (0% inhibition). The inhibition percentage of the compound to the affinity of BCL-XL can be calculated using the following equation: […]
as §1, §2, §3

The subject of assay [3] is RS4;11 cells (acute lymphoblastic leukemia cells). Put plainly: RS4;11 cell proliferation, CellTilter-Glo luminescence cell viability assay. Format: cell-based. The settings on record: Homo sapiens, RS4-11; CTG readout after 48 hours. On the procedure: The effects of the compounds of the present invention on the proliferation of RS4;11 cells were evaluated using a luminescence cell viability assay.
A CellTilter-Glo (CTG) Assay Kit is used to detect ATP, a key indicator of the metabolism of living cells, through a unique, highly sensitive and stable luciferase. The luminescent signal generated in the assay is proportional to the number of the viable cells in the medium, therefore the cell proliferation of RS4;11 can be determined.
CellTilter-Glo reagent (Promega, G7572) is composed of CellTilter-Glo lyophilized powder and CellTilter-Glo buffer, and the lyophilized powder can be dissolved in the buffer for use.
RS4;11 cells (ATCC, CRL-1873) were cultured in RPMI1640 complete medium (Thermofisher, 72400-047) containing 10% FBS (GBICO, 10099-141) and 100 units/ml penicillin-streptomycin solution (Thermofisher, 15140122)), when the cells covered 80-90% in the culture vessel, they were digested and dispersed with 0.25% trypsin (containing EDTA) (Thermofisher, 25200056) and then planted in a white 384-well plate (Thermofisher, 164610), and then the 384-well plate was incubated overnight in a 37° C., 5% CO2 incubator. Compounds were dissolved in 100% DMSO and diluted to […], followed by 4-fold serial dilutions with DMSO to a minimum concentration of 0.061 μM, and each concentration point was further diluted 50-fold with FBS-free RPMI1640 medium. If the IC50 of the compound is very low, the initial concentration of the compound can be reduced. After overnight, 3 μL of the compound diluted in the medium was added to each well, and the mixture was gently centrifuged to mix. The group without cells was used as a negative control (100% inhibition), and the group with 0.2% DMSO was used as a positive control (0% inhibition). The 384-well plate was placed in a 37° C., 5% CO2 incubator for further cultivation. After 48 hours, the plate was taken out and equilibrated to room temperature. 15 μl of CTG reagent was added to each well, the plate was shaken gently for 3 minutes to make sure that the cell lysis was carried out thoroughly, then the plate was kept for 10 minutes to stabilize the luminescence signal, then the luminescence signal was read by EnVision (Perkin Elmer).
The inhibition percentage of the compounds to RS4;11 cell proliferation can be calculated using the following equation:
Inhibition Percentage=100−100*(signal compound-signal negative control)/(signal positive control-signal negative control)
as §1
Y=Bottom+(Top−Bottom)/(1+10^((Log IC50−X)*slope factor))
wherein, Y is the inhibition percentage, Bottom is the bottom plateau of the curve (the bottom plateau value of the S-shaped curve), Top is the top plateau of the curve (the top plateau value of the S-shaped curve), and X is the logarithm of the concentration of the compound to be tested.

T2 sequence (Q07817 whole entry): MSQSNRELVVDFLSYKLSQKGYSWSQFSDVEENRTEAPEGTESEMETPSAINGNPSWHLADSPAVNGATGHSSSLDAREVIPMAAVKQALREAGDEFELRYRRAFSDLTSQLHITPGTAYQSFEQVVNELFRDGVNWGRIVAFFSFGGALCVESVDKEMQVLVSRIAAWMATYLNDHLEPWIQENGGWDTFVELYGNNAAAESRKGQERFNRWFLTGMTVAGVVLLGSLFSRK
T1 sequence (P10415 whole entry): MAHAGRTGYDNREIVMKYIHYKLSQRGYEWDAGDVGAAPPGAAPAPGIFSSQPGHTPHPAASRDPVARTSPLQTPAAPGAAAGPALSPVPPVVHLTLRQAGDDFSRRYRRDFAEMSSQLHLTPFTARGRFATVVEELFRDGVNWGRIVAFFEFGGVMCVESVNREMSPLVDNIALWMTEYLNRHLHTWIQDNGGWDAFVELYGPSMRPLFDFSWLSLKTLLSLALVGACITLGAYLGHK

Take `C[C@H]1CN(c2ccc(C(=O)NS(=O)(=O)c3cc(F)c(NCC4CCOCC4)c([N+](=O)[O-])c3)c(Oc3cnc4[nH]ccc4c3)c2)CCN1CC1=C(c2ccc(Cl)cc2)CC(C)(C)CC1` [Example 7, (S)-2-((1H-pyrrolo[2,3-b]pyridin-5-yl)oxy)-(4-4-((4′-chloro-5,5-dimethyl-3,4,5,6-tetrahydro-[1,1′-biphenyl]-2-yl)methyl)-3-methylpiperazin-1-yl)-N-((3-fluoro-5-nitro-4-(((tetrahydro-2H-pyran-4-yl)methyl)amino)phenyl)sulfonyl) benzamide]: the IC50 is greater than 100 nM in assay [1], greater than 1000 nM in assay [2] and greater than 500 nM in assay [3].
On the same counts, the results for `C[C@@H]1CN(CC2=C(c3ccc(Cl)cc3)CC(C)(C)CC2)CCN1c1ccc(C(=O)NS(=O)(=O)c2ccc(NCC3CCOCC3)c([N+](=O)[O-])c2)c(Oc2cnc3[nH]ccc3c2)c1` [Example 8, (R)-2-((1H-pyrrolo[2,3-b]pyridin-5-yl)oxy)-4-(4-((4′-chloro-5,5-dimethyl-3,4,5,6-tetrahydro-[1,1′-biphenyl]-2-yl)methyl)-2-methylpiperazin-1-yl)-N-((3-nitro-4-(((tetrahydro-2H-pyran-4-yl)methyl)amino)phenyl)sulfonyl)benzamide] are 4.55 nM, greater than 1000 nM and 6.2 nM.
The corresponding values for `C[C@@H]1CN(CC2=C(c3ccc(Cl)cc3)CC(C)(C)CC2)CCN1c1ccc(C(=O)NS(=O)(=O)c2ccc(NCC3CCN(C4COC4)CC3)c([N+](=O)[O-])c2)c(Oc2cnc3[nH]ccc3c2)c1` [Example 9, (R)-2-((1H-pyrrolo[2,3-b]pyridin-5-yl)oxy)-4-(4-((4′-chloro-5,5-dimethyl-3,4,5,6-tetrahydro-[1,1′-biphenyl]-2-yl)methyl)-2-methylpiperazin-1-yl)-N-((3-nitro-4-(((1-(3-oxetan-yl)piperidin-4-yl)methyl)amino)phenyl)sulfonyl) benzamide] are 5.03 nM, greater than 1000 nM and 26 nM.
With `C[C@@H]1CN(CC2=C(c3ccc(Cl)cc3)CC(C)(C)CC2)CCN1c1ccc(C(=O)NS(=O)(=O)c2cc(F)c(NCC3CCN(C4COC4)CC3)c([N+](=O)[O-])c2)c(Oc2cnc3[nH]ccc3c2)c1` [Example 10, (R)-2-((1H-pyrrolo[2,3-b]pyridin-5-yl)oxy)-4-(4-((4′-chloro-5,5-dimethyl-3,4,5,6-tetrahydro-[1,1′-biphenyl]-2-yl)methyl)-2-methylpiperazin-1-yl)-N-((3-fluoro-5-nitro-4-(((1-(3-oxetanyl)piperidin-4-yl)methyl)amino)phenyl)sulfonyl)benzamide], the concentration for half-maximal inhibition (IC50) was 8.21 nM in assay [1], greater than 1000 nM in assay [2] and 68 nM in assay [3].
Turning to `C[C@@H]1CN(CC2=C(c3ccc(Cl)cc3)CC(C)(C)CC2)CCN1c1ccc(C(=O)NS(=O)(=O)c2cc(F)c(NCC3CCOCC3)c([N+](=O)[O-])c2)c(Oc2cnc3[nH]ccc3c2)c1` [Example 11], the IC50 is 12.8 nM in assay [1], greater than 1000 nM in assay [2] and 42 nM in assay [3].
On the same counts, the results for `C[C@@H]1CN(CC2=C(c3ccc(Cl)cc3)CC(C)(C)CC2)CCN1c1ccc(C(=O)NS(=O)(=O)c2ccc(NC[C@H]3COCCO3)c([N+](=O)[O-])c2)c(Oc2cnc3[nH]ccc3c2)c1` [Example 12] are 4.89 nM, greater than 1000 nM and 16 nM.
Take `C[C@H]1CN(CC2=C(c3ccc(Cl)cc3)CC(C)(C)CC2)CCN1c1ccc(C(=O)NS(=O)(=O)c2ccc(NCC3CCOCC3)c([N+](=O)[O-])c2)c(Oc2cnc3[nH]ccc3c2)c1` [Example 13, (S)-2-((1H-pyrrolo[2,3-b]pyridin-5-yl)oxy)-4-(4-((4′-chloro-5,5-dimethyl-3,4,5,6-tetrahydro-[1,1′-biphenyl]-2-yl)methyl)-2-methylpiperazin-1-yl)-N-((3-nitro-4-(((tetrahydro-2H-pyran-4-yl)methyl)amino)phenyl)sulfonyl)benzamide]: the concentration for half-maximal inhibition (IC50) was greater than 100 nM in assay [1], greater than 1000 nM in assay [2] and greater than 500 nM in assay [3].
The corresponding values for `C[C@H]1CCC(CN2CCN(c3ccc(C(=O)NS(=O)(=O)c4cc(F)c(NCC5CCOCC5)c([N+](=O)[O-])c4)c(Oc4cnc5[nH]ccc5c4)c3)C[C@H]2C)=C(c2ccc(Cl)cc2)C1` [Example 14] are 2.35 nM, greater than 1000 nM and 3.8 nM.
`C[C@H]1CCC(CN2CCN(c3ccc(C(=O)NS(=O)(=O)c4ccc(NCC5CCOCC5)c([N+](=O)[O-])c4)c(Oc4cnc5[nH]ccc5c4)c3)C[C@H]2C)=C(c2ccc(Cl)cc2)C1` [Example 15, 2-((1H-pyrrolo[2,3-b]pyridin-5-yl)oxy)-4-((R)-4-(((S)-4′-chloro-5-methyl-3,4,5,6-tetrahydro-[1,1′-biphenyl]-2-yl)methyl)-3-methylpiperazin-1-yl)-N-((3-nitro-4-(((tetrahydro-2H-pyran-4-yl)methyl)amino)phenyl)sulfonyl)benzamide]: the 50% inhibitory concentration (IC50) in assay [1] is 5.99 nM; in assay [2], greater than 1000 nM; in assay [3] it was 19 nM.

For orientation: IC50 means the concentration that gives 50% inhibition.

For the origin of these results see US20230271959A1, “HETEROCYCLIC COMPOUND AS BCL-2 INHIBITOR” (Beijing Innocare Pharma Tech Co., Ltd., priority 2020, published 2023).
